Where a name gives a salt, the structure may show the parent alone.
Experiments:
[1] = water; cited from earlier work
[2] = in vivo; cited from earlier work
[3] = system: opioid-dependent patients; assay: Study of 28 patients who received Nalbuphine for up to 6 months, Example 9A; type: in vivo, human
From the text: The results of a study of 28 patients who received Nalbuphine for up to 6 months are as follows.

[4] = system: IDU (injectable drug users); assay: Pilot study of Nalbuphine administration to IDU (injectable drug users), Example 8A; type: in vivo, human
From the text: A pilot study was initiated to evaluate treatment with Nalbuphine (agonist-antagonist) in the context of HIV prevention, treatment and care interventions. The first pilot study of the effects of Nalbuphine administration to IDU (injectable drug users) started at the 8th of August 2006 in Moscow. It is still being conducted on outpatient basis.
Duration of individual treatment varied from patient to patient (from 10 days to 180 days) depending on patient's condition, life-style, substance abuse history, etc. The frequency of administration varied from 20 mg per patient bid (initially) to 20 mg per patient per week (after 30 days).
The objective of the study is to compare this method with the other methods of drug treatment typical for Russia, and to measure the effects of out-patient Nalbuphine administration using following criteria:
The clinical trial included 19 clients, all with simultaneous codeine addiction, 7 patients living with AIDS, 4 being multiple substance users. In all cases, the patient was a difficult case (5-11 years of heroin abuse). 3 of the patients had very high (3-5 g a day) doses of heroin abuse.
All patients were between 18-50 years old, diagnosed with opiate abuse (in some cases in combination with other substances). They were admitted to the study after three days of opiate abstinence.
Patients with psychiatric, oncological, diabetic conditions, chronic kidney illnesses, and pregnancy were excluded from the study.

[5] = system: HIV-infected, opioid-dependent patient; assay: Average adherence to ARV regimen during nalbuphine administration; type: in vivo, human
Description: Compliance with a treatment regimen and in particular to an ARV regimen is determined using an “average adherence” value calculated using the formula: […]
where A is the number of tablets or gel capsules required by the protocol to be administered to a patient over four weeks; and B is the number of tablets or gel capsules prescribed but actually not taken by a patient over the same period of time.

[6] = system: opioid-dependent patient; assay: Clinical case reports: nalbuphine 2 cc IM twice a day in opioid-dependent patients (Examples 1A-7A); type: in vivo, human
[7] = Example 1A, M., 2 cc IM twice a day for 48 days
[8] = Example 3A, N., 2 cc IM twice a day for 30 days

Structure (SMILES): Oc1ccc2c3c1O[C@H]1[C@@H](O)CCC4(O)C(C2)N(CC2CCC2)CCC314 (stereo partly drawn) [nalbuphine hydrochloride, 17-(cyclobutylmethyl)-4,5α-epoxymorphinan-3,6α-14-triol hydrochloride]
- solubility [1]: Water-soluble
- plasma half life [2]: about five

Structure (SMILES): Oc1ccc2c3c1OC1[C@@H](O)CCC4(O)[C@@H](C2)N(CC2CCC2)CC[C@]314 (stereo partly drawn) [nalbuphine, 17-(cyclobutylmethyl)-4,5α-epoxymorphinane-3,6α-14-triol]
- correlation between administrated dose and heroin consumption ([3]; 28 patients): inverse correlation
- overdose, side effects or new infections associated with injectable drugs ([3]; 28 patients): no observed instances of overdose, side effects or new infections
- quality of life ([3]; 28 patients): improved
- people staying clean (periodic urine tests for opiates) while on therapy ([3]; 28 patients, up to 6 months): two thirds
- reduction of total heroin and other opiate consumption ([3]; 28 patients, up to 6 months): up to 75%
- cravings for drug ([3]; all patients): clear reduction of cravings for drug
- compliance (adherence) to ARVT ([3]; patients already receiving ARVT): nearly perfect compliance (adherence)
- side effects or drug-drug interactions ([4]; 19 clients): No side effects or drug-drug interactions were observed
- involvement/adherence to HIV treatments ([4]; all HIV-positive patients): higher involvement/adherence
- quality of life ([4]; all patients): improved quality of life
- patients who stopped heroin and codeine consumption ([4]; of 19 clients, 20 mg bid initially to 20 mg per week, 10 to 180 days, outpatient): 18 patients
- Average adherence to ART during April ([5]; Example 3A, N., 98% in January-March 2006 before nalbuphine): 100%
- Average adherence to ART during April ([5]; Example 4A, S., male, Stocrin+Combivir, 76% in January-March 2006 before nalbuphine): 97%
- Average adherence to ART during April ([5]; Example 5A, V., Stocrin and Combivir, 70% in January-March 2006 before nalbuphine): 95%
- Average adherence to ART during April ([5]; Example 6A, L., Efavirenz and Combivir, 68% in January-March 2006 before nalbuphine): 93%
- Average adherence to ART during April ([5]; Example 7A, S., female, 98% in January-March 2006 before nalbuphine): 93%
- aggravation of opportunistic infections or HCV [6, 7]: No aggravation
- craving [6, 7]: profound decrease in craving
- desire for drug use ([6]; Example 2A, D., 2 cc IM twice a day for 52 days): denies desire for drug use
- aggravation of opportunistic infections or HCV ([6]; Example 3A, N.): No aggravation
- cravings for drugs [6, 8]: cravings for drugs decreased
- pain (chronic osteomyelitis) [6, 8]: pain relief
- aggravation of opportunistic infections or HCV ([6]; Example 5A, V.): No aggravation
- alcohol problems ([6]; Example 5A, V.): problems with alcohol persist
- aggravation of opportunistic infections or HCV ([6]; Example 6A, L.): No aggravation
- drug cravings ([6]; Example 6A, L.): drug cravings decreased
- attempts of suicide ([6]; Example 6A, L., multiple earlier attempts): No attempts of suicide
